Data on 18 compounds can be found in patent US10233184B2, “7-substituted sulfonimidoylpurinone compounds and derivatives for the treatment and prophylaxis of virus infection” (Hoffmann-La Roche Inc., priority 2016, dated 2019).

Like-named read-outs stand apart in the source and are kept apart here.

This assay concerns the target T1, human TLR7 (Homo sapiens, UniProt Q9NYK1).
T1 sequence (Q9NYK1 27-1049): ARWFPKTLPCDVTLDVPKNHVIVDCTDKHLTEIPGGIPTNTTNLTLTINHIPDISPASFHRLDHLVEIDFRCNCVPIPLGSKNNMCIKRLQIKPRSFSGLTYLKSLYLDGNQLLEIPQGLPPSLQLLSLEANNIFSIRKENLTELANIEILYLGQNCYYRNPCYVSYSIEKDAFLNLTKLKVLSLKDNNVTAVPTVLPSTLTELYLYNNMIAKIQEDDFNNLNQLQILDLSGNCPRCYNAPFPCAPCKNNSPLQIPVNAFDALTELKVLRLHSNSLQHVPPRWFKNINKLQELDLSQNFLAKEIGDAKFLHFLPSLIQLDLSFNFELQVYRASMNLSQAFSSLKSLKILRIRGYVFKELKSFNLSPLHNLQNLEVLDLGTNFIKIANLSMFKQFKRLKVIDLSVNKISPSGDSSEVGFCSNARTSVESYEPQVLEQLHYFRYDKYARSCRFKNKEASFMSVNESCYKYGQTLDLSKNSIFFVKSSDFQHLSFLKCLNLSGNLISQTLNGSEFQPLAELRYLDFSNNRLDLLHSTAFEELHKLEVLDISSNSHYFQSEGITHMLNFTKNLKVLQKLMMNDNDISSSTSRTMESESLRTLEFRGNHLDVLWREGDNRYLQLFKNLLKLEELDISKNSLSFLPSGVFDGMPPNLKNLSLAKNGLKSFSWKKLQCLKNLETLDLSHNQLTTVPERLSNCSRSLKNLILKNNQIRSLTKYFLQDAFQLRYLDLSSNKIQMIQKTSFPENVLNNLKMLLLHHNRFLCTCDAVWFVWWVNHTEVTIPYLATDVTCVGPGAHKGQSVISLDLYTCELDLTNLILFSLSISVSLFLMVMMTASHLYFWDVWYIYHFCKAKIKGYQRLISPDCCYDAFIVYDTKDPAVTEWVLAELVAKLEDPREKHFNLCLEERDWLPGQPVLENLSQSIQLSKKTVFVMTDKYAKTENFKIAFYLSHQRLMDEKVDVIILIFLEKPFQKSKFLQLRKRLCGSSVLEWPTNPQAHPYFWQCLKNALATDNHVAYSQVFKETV
The assay is described as follows: HEK293-Blue-hTLR-7 cells assay (SEAP reporter). Type of assay: cell-based. As to conditions: for EC50: HEK293-Blue-hTLR-7 cells, SEAP reporter, 20 hrs; for Ratio (EC50(prodrug)/EC50(active form)): EC50 of prodrug over EC50 of corresponding active form. An excerpt:
HEK293-Blue-hTLR-7 Cells Assay:
A stable HEK293-Blue-hTLR-7 cell line was purchased from InvivoGen (Cat.#: hkb-htlr7, San Diego, Calif., USA). These cells were designed for studying the stimulation of human TLR7 by monitoring the activation of NF-κB. A SEAP (secreted embryonic alkaline phosphatase) reporter gene was placed under the control of the IFN-β minimal promoter fused to five NF-κB and AP-1-binding sites. The SEAP was induced by activating NF-κB and AP-1 via stimulating HEK-Blue hTLR7 cells with TLR7 ligands. Therefore the reporter expression was regulated by the NF-κB promoter upon stimulation of human TLR7 for 20 hrs. The cell culture supernatant SEAP reporter activity was determined using QUANTI-Blue™ kit (Cat.#: rep-qbl, Invivogen, San Diego, Calif., USA) at a wavelength of 640 nm, a detection medium that turns purple or blue in the presence of alkaline phosphatase.
HEK293-Blue-hTLR7 cells were incubated at a density of 250,000˜450,000 cells/mL in a volume of 180 μL in a 96-well plate in Dulbecco's Modified Eagle's medium (DMEM) containing 4.5 g/L glucose, 50 U/mL penicillin, […], […], 2 mM L-glutamine, 10% (V/V) heat-inactivated fetal bovine serum for 24 hrs. Then the HEK293-Blue-hTLR-7 cells were incubated with addition of 20 μL test compound in a serial dilution in the presence of final DMSO at 1% and perform incubation under 37° C. in a CO2 incubator for 20 hrs. Then 20 μL of the supernatant from each well was incubated with 180 μL Quanti-blue substrate solution at 37° C. for 2 hrs and the absorbance was read at 620˜655 nm using a spectrophotometer. The signalling pathway that TLR7 activation leads to downstream NF-κB activation has been widely accepted, and therefore similar reporter assay was also widely used for evaluating TLR7 agonist (Tsuneyasu Kaisho and Takashi Tanaka, Trends in Immunology, Volume 29, Issue 7, July 2008, […]; Hiroaki Hemmi et al, Nature Immunology 3, 196-200 (2002)).
The Compounds and Examples of the present invention were tested in HEK293-hTLR-7 assay for their TLR7 agonism activity as described herein and results are listed in Table 1. […] The calculated ratio of EC50(prodrug)/EC50(active form) were within the range from 32 to about 7600.

[1] abbreviates: active form, read-out: HEK293-hTLR-7 EC50 (Active form).
[2] abbreviates: prodrug, read-out: HEK293-hTLR-7 EC50 (Prodrug).

Regarding `CCS(=N)(=O)c1nc(N)c2[nH]c(=O)n(Cc3ccc(Cl)cc3)c2n1` (stereo not shown) [Compound 41c, 6-amino-9-[(4-chlorophenyl)methyl]-2-(ethylsulfonimidoyl)-7H-purin-8-one], under setting [1], the EC50 came out at 0.053 µM. Same read-out and setting: as for `CCC[S@](=N)(=O)c1nc(N)c2[nH]c(=O)n(Cc3ccc(Cl)cc3)c2n1` (single isomer, unassigned) [Compound 34e-A], the figure is 0.014 µM.

With `CCC[S@](=N)(=O)c1nc(N)c2c(n1)n(Cc1ccc(C)cc1)c(=O)n2C(=O)N(C)CCOC` (stereo in doubt) [Example 38-B, 6-amino-N-(2-methoxyethyl)-N-methyl-8-oxo-2-[S(R)-propylsulfonimidoyl]-9-(p-tolylmethyl)purine-7-carboxamide], the “Ratio (EC50(prodrug)/EC50(active form))” value stood at 886.4. Moreover, the EC50 under setting [2] is 19.5 µM. Regarding `CCCS(=N)(=O)c1nc(N)c2[nH]c(=O)n(Cc3ccccc3)c2n1` (single isomer, unassigned) [Compound 1e-B], under setting [1], the EC50 was 0.086 µM. As for `CCC[S@](=N)(=O)c1nc(N)c2[nH]c(=O)n(Cc3ccc(Cl)cc3)c2n1` (single isomer, unassigned) [Compound 34e-B], the EC50 under setting [1] was 0.011 µM. In the case of `CCCCN(C)C(=O)n1c(=O)n(Cc2ccc(C)cc2)c2nc(S(=N)(=O)CCC)nc(N)c21` (stereo not shown) [Example 40, 6-Amino-N-butyl-N-methyl-8-oxo-2-(propylsulfonimidoyl)-9-(p-tolylmethyl)purine-7-carboxamide], the “Ratio (EC50(prodrug)/EC50(active form))” value was 1955.6. Besides, the EC50 under setting [2] was determined as 52.8 µM. In the same order, the values of `CCCCN(C)C(=O)n1c(=O)n(Cc2ccc(Cl)cc2)c2nc([S@@](=N)(=O)CCC)nc(N)c21` [Example 34-A, 6-Amino-N-butyl-9-[(4-chlorophenyl)methyl]-N-methyl-8-oxo-2-[S(S)-propylsulfonimidoyl]purine-7-carboxamide] are 428.6 and 6 µM. On the same counts, the results for `CCCCN(C)C(=O)n1c(=O)n(Cc2ccc(Cl)cc2)c2nc([S@@](=N)(=O)CCC)nc(N)c21` [Example 34-B, 6-amino-N-butyl-9-[(4-chlorophenyl)methyl]-N-methyl-8-oxo-2-[S(S)-propylsulfonimidoyl]purine-7-carboxamide] are 578.2 and 6.36 µM. In the same order, the values of `CCN(C)C(=O)n1c(=O)n(Cc2ccc(C)cc2)c2nc([S@@](=N)(=O)CC)nc(N)c21` [Example 44-A, 6-Amino-N-ethyl-2[S(S)-ethylsulfonimidoyl]-N-methyl-8-oxo-9-(p-tolylmethyl)purine-7-carboxamide] are 1868.6 and 65.4 µM.

On to `CCC[S@](=N)(=O)c1nc(N)c2c(n1)n(Cc1ccc(C)cc1)c(=O)n2C(=O)N1CCCC1` (stereo in doubt) [Example 37-B, 6-amino-2-[S(R)-propylsulfonimidoyl]-9-(p-tolylmethyl)-7-(pyrrolidine-1-carbonyl)purin-8-one], for which the “Ratio (EC50(prodrug)/EC50(active form))” value is listed as 2154.5. For the same compound, the EC50 under setting [2] was determined as 47.4 µM.

As to `CCC[S@](=N)(=O)c1nc(N)c2c(n1)n(Cc1ccc(C)cc1)c(=O)n2C(=O)N1CCCC1` [Example 37-A, 6-Amino-2-[S(S)-propylsulfonimidoyl]-9-(p-tolylmethyl)-7-(pyrrolidine-1-carbonyl)purin-8-one], the “Ratio (EC50(prodrug)/EC50(active form))” value came to 1400. The EC50 under setting [2] worked out at 26.6 µM.

For `CCN(C)C(=O)n1c(=O)n(Cc2ccc(C)cc2)c2nc([S@@](=N)(=O)CC)nc(N)c21` (stereo in doubt) [Example 44-B, 6-Amino-N-ethyl-2-[S(R)-ethylsulfonimidoyl]-N-methyl-8-oxo-9-(p-tolylmethyl)purine-7-carboxamide], the “Ratio (EC50(prodrug)/EC50(active form))” value was 879.1. Moreover, the EC50 under setting [2] worked out at 96.7 µM.

For `CCCS(=N)(=O)c1nc(N)c2[nH]c(=O)n(Cc3ccccc3)c2n1` (stereo not shown) [Compound 1e, 6-amino-9-benzyl-2-(propylsulfonimidoyl)-7H-purin-8-one], the EC50 under setting [1] worked out at 0.065 µM. In the case of `CCCS(=N)(=O)c1nc(N)c2[nH]c(=O)n(Cc3ccc(C)cc3)c2n1` (single isomer, unassigned) [Compound 36g-A], under setting [1], the EC50 came out at 0.019 µM.

On to `CCC[S@](=N)(=O)c1nc(N)c2c(n1)n(Cc1ccc(C)cc1)c(=O)n2C(=O)N(C)CCOC` [Example 38-A, 6-Amino-N-(2-methoxyethyl)-N-methyl-8-oxo-2-[S(S)-propylsulfonimidoyl]-(p-tolylmethyl)purine-7-carboxamide], for which the EC50 under setting [2] was determined as 26.2 µM. On to `CCCN(C)C(=O)n1c(=O)n(Cc2ccc(Cl)cc2)c2nc(S(=N)(=O)CC)nc(N)c21` (stereo not shown) [Example 41], for which the “Ratio (EC50(prodrug)/EC50(active form))” value is on record as 679.2. The EC50 under setting [2] came out at 36 µM.

With `CCCS(=N)(=O)c1nc(N)c2c(n1)n(Cc1ccc(C)cc1)c(=O)n2C(=O)N(C)CC` (stereo not shown) [Example 39, 6-Amino-N-ethyl-N-methyl-8-oxo-2-(propylsulfonimidoyl)-9-(p-tolylmethyl)purine-7-carboxamide], the “Ratio (EC50(prodrug)/EC50(active form))” value was found to be 159.3. The EC50 under setting [2] was 4.3 µM. With `CCCS(=N)(=O)c1nc(N)c2[nH]c(=O)n(Cc3ccc(C)cc3)c2n1` (single isomer, unassigned) [Compound 36g-B], the EC50 under setting [1] turned out to be 0.022 µM.
